From patent US8871793B2, “Metaxalone cocrystals” (Nuformix Limited, priority 2009, dated 2014)
Where two headings read alike, the source gives them in different places.

Assays:
[1] = presence of food at the time of drug administration compared to fasted conditions; cited from earlier work
[2] = cited from earlier work
[3] = Pharmacokinetic study, oral capsule administration under fasted conditions in beagle dogs; type: in vivo; conditions: mean, male beagle dogs, equivalent metaxalone dosage of 21 mg/kg; for Cmax: plasma metaxalone by LC-MS/MS; for AUC / Tmax: plasma; for AUC: linear trapezoidal rule
Protocol: The study was designed to compare the pharmacokinetic profiles of the 1:0.5 metaxalone fumaric acid (prepared as described in Example 2.7) and 1:0.5 metaxalone succinic acid cocrystals (prepared as described in Example 4.7) with that of the crystalline metaxalone following oral administration under fasted conditions at 21 mg/kg dose level in beagle dogs. A crossover study was carried out using 5 male beagle dogs with a washout period of 5 days between each treatment. Prior to dosing, the dogs were fasted overnight, weighed and then this weight was used to load capsules with each test compound at an equivalent metaxalone dosage of 21 mg/kg. The capsules were orally administered to the dogs followed by about 10 mL of water. Food was provided 4 hours post-dose to all animals.
Blood samples were collected at pre-dose, 10, 20 and 30 minutes, and 1, 2, 3, 4, 6, 8, 12 and 24 hour post-dose (12 time points) following oral dose administration. Approximately 0.8 ml of whole blood was withdrawn from the cephalic vein and placed in labelled tubes containing K2 EDTA as anticoagulant ([…] of 200 mM K2 EDTA solution per mL of blood). Plasma was separated by centrifuging the whole blood at about 2500 g for 10 minutes at 4° C. Separated plasma was stored below −70° C. until analysis.
A fit for purpose LC-MS/MS method was used for the determination of the metaxalone concentrations in the plasma samples. Pharmacokinetic parameters from individual samples were calculated using the non-compartmental analysis tool of the WinNonlin® software (version 5.2). The area under the plasma concentration curve (AUC) was calculated using the linear trapezoidal rule. Peak plasma concentration (Cmax) and the time taken to reach the peak plasma concentration (Tmax) were the observed values.

Row | Compound | Increase of AUC(inf) by food [1] [%] | Increase of AUC(last) by food [1] [%] | Increase of C(max) by food [1] [%] | Solubility in 96% ethanol ([2]; 96% ethanol) | Solubility in chloroform ([2]; chloroform) | Solubility in methanol ([2]; methanol) | Solubility in water ([2]; water) | Cmax ([3]; dog, read-out: Cmax) [ng/mL] | AUC ([3]; dog, read-out: AUC) [ng·h/mL] | Tmax ([3]; dog, read-out: Tmax) [h] | Tmax [3] [h] | Cmax [3] [ng/mL] | AUC [3] [ng·h/mL]
1 | Cc1cc(C)cc(OCC2CNC(=O)O2)c1 (stereo not shown) [Metaxalone, 5-[(3,5-dimethylphenoxy)methyl]-2-oxazolidinone] | 115.4 | 123.5 | 177.5 | soluble | freely soluble | soluble | practically insoluble | 1910 | 2380 | 0.9 | – | – | –
2 | Cc1cc(C)cc(OCC2CNC(=O)O2)c1.Cc1cc(C)cc(OCC2CNC(=O)O2)c1.O=C(O)C=CC(=O)O (stereo not shown) [1:0.5 Metaxalone Fumaric Acid Cocrystal] | – | – | – | – | – | – | – | – | – | – | 1.1 | 3635.39 | 5202.44
3 | Cc1cc(C)cc(OCC2CNC(=O)O2)c1.Cc1cc(C)cc(OCC2CNC(=O)O2)c1.O=C(O)CCC(=O)O (stereo not shown) [1:0.5 Metaxalone Succinic Acid Cocrystal] | – | – | – | – | – | – | – | – | – | – | 1.8 | 2629.8 | 4134.85
